Assay results reported in US6204293A, “Inhibitors of protein isoprenyl transferases” (University of Pittsburgh, priority 1998, dated 2001).
Where a name gives a salt, the structure may show the parent alone.

These molecules were tested against T1, Rat brain protein farnesyltransferase (Rattus norvegicus, UniProt Q02293+Q04631) (assay: % inhibition of farnesylation, scintillation proximity assay with biotin-K Ras B fragment). Conditions: Table 2; 1 × 10^-6 M.
T1 construct: Rat brain protein farnesyltransferase activity is measured; from tissue; host or cells: rat brain
Assay type: biochemical
Procedure, shortened: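 Rat brain enzyme, purified through three steps, in a scintillation proximity assay kit with biotin-K Ras B fragment substrate at 0.1 mM final. Value is % inhibition of farnesylation.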

T1 sequence (Q02293 whole entry, the tested form may be a part, one chain of several): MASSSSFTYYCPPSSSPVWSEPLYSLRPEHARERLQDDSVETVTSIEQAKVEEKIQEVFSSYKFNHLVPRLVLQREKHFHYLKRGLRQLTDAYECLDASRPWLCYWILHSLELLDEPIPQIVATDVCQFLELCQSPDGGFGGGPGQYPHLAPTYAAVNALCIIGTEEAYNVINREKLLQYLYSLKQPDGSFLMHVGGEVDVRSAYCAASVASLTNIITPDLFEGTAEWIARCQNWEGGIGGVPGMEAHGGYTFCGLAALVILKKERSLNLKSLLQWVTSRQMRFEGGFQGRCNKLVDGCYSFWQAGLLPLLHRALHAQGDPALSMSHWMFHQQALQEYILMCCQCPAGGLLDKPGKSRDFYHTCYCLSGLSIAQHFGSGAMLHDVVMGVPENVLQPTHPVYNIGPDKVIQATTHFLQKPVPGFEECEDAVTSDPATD

| % inhibition at 1 × 10^-6 M | SMILES |
| --- | --- |
| 40% | CSCC[C@H](NC(=O)c1ccc(NC(=O)Cc2ccccc2)cc1-c1ccccc1C)C(=O)O [Example 540] |
| 37% | CSCC[C@H](NC(=O)c1ccc(NC(=O)Cc2ccc(C)cc2)cc1-c1ccccc1C)C(=O)O [Example 541] |
| 67% | COc1ccc(CC(=O)Nc2ccc(C(=O)N[C@@H](CCSC)C(=O)O)c(-c3ccccc3C)c2)cc1 [Example 542] |
| 35% | COc1ccccc1CCC(=O)Nc1ccc(C(=O)N[C@@H](CCSC)C(=O)O)c(-c2ccccc2C)c1 [Example 544] |

| SMILES | % inhibition at 1 × 10^-6 M |
| --- | --- |
| CSCC[C@H](NC(=O)c1ccc(CC(Cc2ccccc2)c2ccccc2)cc1-c1ccccc1C)C(=O)[O-].[Li+] (stereo partly shown) [Example 572] | 91% |

Same assay, conditions: read-out: % inhibition at 1 × 10^-6 M

| SMILES | inhibition at 1 µM |
| --- | --- |
| CSCC[C@H](NC(=O)c1ccc(CSC2CCCCC2)cc1-c1ccccc1C)C(=O)O [Example 550, N-[4-cyclohexylthiomethyl-2-(2-methylphenyl)benzoyl]methionine, lithium salt] | 96% |
| CSCC[C@H](NC(=O)c1ccc(OCCC2CCCCC2)cc1-c1ccccc1C)C(=O)O [Example 552, N-[4-(2-cyclohexylethoxy)-2-(2-methylphenyl)benzoyl]methionine, lithium salt] | 88% |
| CSCC[C@H](NC(=O)c1ccc(CSCc2ccccc2)cc1-c1ccccc1C)C(=O)O [Example 554, N-[4-benzylthiomethyl-2-(2-methylphenyl)benzoyl]methionine, lithium salt] | 96% |
| CSCC[C@H](NC(=O)c1ccc(CSCc2ccc(C)cc2)cc1-c1ccccc1C)C(=O)O [Example 556, N-[4-(4-methylbenzyl)thiomethyl-2-(2-methylphenyl)benzoyl]methionine, lithium salt] | 99% |
| CSCC[C@H](NC(=O)c1ccc(CSCc2ccccc2C)cc1-c1ccccc1C)C(=O)O [Example 557, N-[4-(2-methylbenzyl)thiomethyl-2-(2-methylphenyl)benzoyl]methionine, lithium salt] | 93% |
| CSCC[C@H](NC(=O)c1ccc(OCCOC2CCCCC2)cc1-c1ccccc1C)C(=O)O [Example 565, N-[4-(2-cyclohexyloxy)ethoxy-2-(2-methylphenyl)benzoyl]methionine, lithium salt] | 94% |
| CSCC[C@H](NC(=O)c1ccc(COCc2ccccc2C)cc1-c1ccccc1C)C(=O)O [Example 577, N-[4-(2-methylbenzyloxymethyl)-2-(2-methylphenyl)benzoyl]methionine lithium salt] | 94% |

Same assay, conditions: read-out: % inhibition at 1 × 10^-6 M; Table 2; 1 × 10^-6 M

| SMILES | inhibition at 1 µM |
| --- | --- |
| CSCC[C@H](NC(=O)c1ccc(CS[C@H](CO)Cc2ccccc2)cc1-c1ccccc1)C(=O)O [Example 545, N-[4-(3-phenylpropan-1-ol-2-ylthiomethyl)-2-phenylbenzoyl]methionine, sodium salt] | 88% |
| CSCC[C@H](NC(=O)c1ccc(OCCCCOc2ccccc2)cc1-c1ccccc1C)C(=O)O [Example 568, N-[4-(3-phenoxy)butoxy-2-(2-methylphenyl)benzoyl]methionine. lithium salt] | 93% |
| CSCC[C@H](NC(=O)c1ccc(COCc2ccccc2)cc1-c1ccccc1)C(=O)O [Example 575, N-[4-(benzyloxymethyl)-2-phenylbenzoyl]methionine] | 70% |
| Cc1ccccc1-c1cc(COCc2ccccc2)ccc1C(=O)N[C@@H](CCS(C)(=O)=O)C(=O)O [Example 576, N-2-[4-(benzyloxymethyl)-2-(2-methylphenyl)benzoyl]amino-4-methanesulfonylbutanoic acid lithium salt] | 88% |

Results, then the molecule that gave them:

| inhibition at 1 µM | SMILES |
| --- | --- |
| 97% | CSCC[C@H](NC(=O)c1ccc(OC/C=C(\C)CCC=C(C)C)cc1-c1ccccc1C)C(=O)O [Example 546, N-[4-geranyloxy-2-(2-methylphenyl)benzoyl]methionine, lithium salt] |
| 91% | CSCC[C@H](NC(=O)c1ccc(OC/C=C(\C)CC/C=C(\C)CCC=C(C)C)cc1-c1ccccc1C)C(=O)O [Example 547, N-[4-farnesyloxy-2-(2-methylphenyl)benzoyl]methionine, lithium salt] |
| 92% | CSCC[C@H](NC(=O)c1ccc(OCCC23CC4CC(CC(C4)C2)C3)cc1-c1ccccc1C)C(=O)O [Example 553, N-[4-(2-adamantan-1-ylethoxy)-2-(2-methylphenyl)benzoyl]methionine] |
| 85% | CSCC[C@H](NC(=O)c1ccc(CS(=O)(=O)Cc2ccccc2)cc1-c1ccccc1C)C(=O)O [Example 555, N-[4-benzylsulfonylmethyl-2-(2-methylphenyl)benzoyl]methionine] |
| 91% | CSCC[C@H](NC(=O)c1ccc(OC/C=C/c2ccccc2)cc1-c1ccccc1C)C(=O)O [Example 560, N-[4-(3-phenyl)prop-2-en-1-yloxy-2-(2-methylphenyl)benzoyl]methionine] |
| 91% | CSCC[C@H](NC(=O)c1ccc(OCCOc2ccccc2)cc1-c1ccccc1C)C(=O)O [Example 561, N-[4-(2-phenoxy)ethoxy-2-(2-methylphenyl)benzoyl]methionine] |
| 98% | CSCC[C@H](NC(=O)c1ccc(OCCCC2CCCCC2)cc1-c1ccccc1C)C(=O)O [Example 564, N-[4-(3-cyclohexylpropoxy)-2-(2-methylphenylbenzoyl]methionine, lithium salt] |
| 98% | CSCC[C@H](NC(=O)c1ccc(OCCCOc2ccccc2)cc1-c1ccccc1C)C(=O)O [Example 566, N-[4-(3-phenoxy)propoxy-2-(2-methylphenyl)benzoyl]methionine] |

Same assay, conditions: read-out: % inhibition at 1 × 10^-7 M

| SMILES | inhibition at 0.1 µM |
| --- | --- |
| CSCC[C@H](NC(=O)c1ccc(COCc2cc3ccccc3o2)cc1-c1ccccc1C)C(=O)O [Example 533, N-[4-(benzofuran-2-ylmethoxymethyl)-2-(2-methylphenyl)benzoyl]methionine lithium salt] | 91% |
| CSCC[C@H](NC(=O)c1ccc(COC(Cc2ccccc2)c2ccco2)cc1-c1ccccc1C)C(=O)O (stereo partly shown) [Example 534, N-[4-(1-furan-2-yl-2-phenylethoxymethyl)-2-(2-methylphenyl)benzoyl]methionine lithium salt] | 84% |
| CSCC[C@H](NC(=O)c1ccc(COCCc2ccc(-c3ccc(F)cc3)o2)cc1-c1ccccc1C)C(=O)O [Example 535, N-[4-(5-(4-fluorophenyl)furan-2-ylethoxymethyl)-2-(2-methylphenyl)benzoyl]methionine lithium salt] | 89% |
| CSCC[C@H](NC(=O)c1ccc(COCCc2ccc(-c3ccc(Cl)cc3)o2)cc1-c1ccccc1C)C(=O)O [Example 536, N-[4-(5-(4-chlorophenyl)furan-2-ylethoxymethyl)-2-(2-methylphenyl)benzoyl]methionine lithium salt] | 79% |
| CSCC[C@H](NC(=O)c1ccc(COCc2cncs2)cc1-c1ccccc1C)C(=O)O [Example 539, N-[4-(thiazol-5-ylmethoxymethyl)-2-(2-methylphenyl)benzoyl]methionine lithium salt] | 89% |
| CSCC[C@H](NC(=O)c1ccc(CSCC2CCCCC2)cc1-c1ccccc1C)C(=O)O [Example 559, N-[4-cyclohexylmethylthiomethyl-2-(2-methylphenyl)benzoyl]methionine, lithium salt] | 96% |
| CSCC[C@H](NC(=O)c1ccc(CSCCc2ccccc2)cc1-c1ccccc1C)C(=O)O [Example 562, N-[4-(2-phenyl)ethylthiomethyl-2-(2-methylphenyl)benzoyl]methionine, lithium salt] | 95% |
| CSCC[C@H](NC(=O)c1ccc(COCc2ccccc2)cc1-c1ccccc1C)C(=O)O [Example 571, N-[4-(benzyloxymethyl)-2-(2-methylphenyl)benzoyl]methionine lithium salt] | 88% |
| CSCC[C@H](NC(=O)c1ccc(COCc2cccc(C)c2)cc1-c1ccccc1C)C(=O)O [Example 578, N-[4-(3-methylbenzyloxymethyl)-2-(2-methylphenyl)benzoyl]methionine lithium salt] | 90% |
| CSCC[C@H](NC(=O)c1ccc(COCc2ccc(C)cc2)cc1-c1ccccc1C)C(=O)O [Example 579, N-[4-(4-methylbenzyloxymethyl)-2-(2-methylphenyl)benzoyl]methionine lithium salt] | 92% |

Same assay, conditions: read-out: % inhibition at 1 × 10^-7 M; Table 3; 1 × 10^-7 M

| inhibition at 0.1 µM | SMILES |
| --- | --- |
| 88% | CSCC[C@H](NC(=O)c1ccc(COCc2ccc(C)o2)cc1-c1ccccc1C)C(=O)O [Example 532, N-[4-(5-methylfuran-2-ylmethoxymethyl)-2-(2-methylphenyl)benzoyl]methioninelithium salt] |
| 93% | CSCC[C@H](NC(=O)c1ccc(CSc2ccc3ccccc3c2)cc1-c1ccccc1C)C(=O)O [Example 551, N-[4-naphth-2-ylthiomethyl-2-(2-methylphenyl)benzoyl]methionine] |
| 87% | COc1ccc(CSCc2ccc(C(=O)N[C@@H](CCSC)C(=O)O)c(-c3ccccc3C)c2)cc1 [Example 558, N-[4-(4-methoxybenzyl)thiomethyl-2-(2-methylphenyl)benzoyl]methionine, lithium salt] |
| 72% | CSCC[C@H](NC(=O)c1ccc(COc2ccc3ccccc3c2)cc1-c1ccccc1C)C(=O)O [Example 573, N-[4-(naphth-2-yloxymethyl)-2-(2-methylphenyl)benzoyl]methionine] |
| 81% | CSCC[C@H](NC(=O)c1ccc(COc2cccc3ccccc23)cc1-c1ccccc1C)C(=O)O [Example 574, N-[4-(naphth-1-yloxymethyl)-2-(2-methylphenyl)benzoyl]methionine] |

Same assay, conditions: read-out: % inhibition at 1 × 10^-8 M; Table 4; 1 × 10^-8 M

| SMILES | inhibition at 0.01 µM |
| --- | --- |
| CSCC[C@H](NC(=O)c1ccc(OCCCCC2CCCCC2)cc1-c1ccccc1C)C(=O)O [Example 567, N-[4-(4-cyclohexyl)butoxy-2-(2-methylphenyl)benzoyl]methionine, lithium salt] | 69% |
